This note sets out measurements from patent US8883847B2, “Compositions and methods of treatment using modulators of motoneuron diseases” (KineMed, Inc., priority 2006, dated 2014).

Molecules are shown by their SMILES.

For the test, the system named is SOD1-G93A TGN mice. Put plainly: Noscapine-MK801 treatment of SOD1-G93A TGN mice: gait/stride length, disease onset, mortality. Type of test: in vivo, mouse. Conditions: for Mortality: age at death; for Onset of motor deficits: age at onset. As for the experimental part: FIG. 6. Noscapine-MK801 combination delays onset of disease and death in SOD1-G93A TGN mice. The one and two-drug treatments were started at an early (i.e., presymptomatic) stage of disease (7 weeks). SOD1-G93A TGN mice were treated 3 times a week with noscapine (0.2 mg/kg body weight) and/or MK-801 (12 mg/kg body weight/day). Mice received noscapine intraperitoneally and MK-801 in drinking water.
Female SOD-1 G93A TGN mice were obtained from Jackson laboratory (strain #2726). The controls were matched litter mates. Treatment groups were three per group. Noscapine was injected intraperitoneal in the thigh 3 times/week (0.2 mg/kg i.p.) and MK801 was administered continuously in drinking water (12 mg/kg/d). Gait analysis was done by the method of Wooley et al., Muscle Nerve 2005 32(1):43-50 and Carter et al. J. Neurosci., 19(8):3248-3257, hereby incorporated by reference in their entirety.
For clinical assessment endpoints scoring was selected as follows:
GROUP CLASSIFICATION: Presymptomatic
Clinical signs: Full mobility and no observable difference in behavior from age-matched controls (Gait or stride length analysis).
GROUP CLASSIFICATION: Onset
Clinical signs: Abnormal Gait or stride length analysis and hindlimb weakness: >40% reduction in stride length vs. age-matched littermates.
GROUP CLASSIFICATION: End Stage (euthanization)
Clinical signs: noticeable and complete hind limb paralysis (which in this strain occurs more on one limb than the other) and inability to right themselves in 5 sec time window. This stage starts usually as the mice are failing the gait analysis test and enter the End stage. Therefore, Transgenic SOD1-G93A TGN mice are euthanized at the onset of noticeable and complete hindlimb paralysis and inability to right themselves in 5 sec time window.

As to `C[C@]12N[C@H](Cc3ccccc31)c1ccccc12` [MK-801, Dizocilipine], the Mortality lay in the range of 112 to 119 days and the “Onset of motor deficits” value fell in the range of 105 to 112 days.

In the case of `COc1ccc2c(c1OC)C(=O)O[C@@H]2[C@H]1c2c(cc3c(c2OC)OCO3)CCN1C` [Noscapine, noscapine], the Mortality is 112 to 119 days and the “Onset of motor deficits” value is 98 to 105 days.
